The numbers were not newly measured in patent US11273137B2, “Methods and compositions to prevent and treat disorders associated with mutations in the ODC1 gene” (Board of Trustees of Michigan State University, priority 2018, dated 2022), which cites them from elsewhere.

SMILES strings stand for the structures.

The test system of series [1] is transgenic mice overexpressing c-terminally deleted ODC (p.P427X).
Where [2] appears, read: transgenic mice with c-terminally deleted ODC.

With `NCCC[C@](N)(C(=O)O)C(F)F` [DFMO, alpha-difluoromethylornithine], the water solubility result is on record as “water soluble”. The “phenotypic changes (skin and hair follicle abnormalities, alopecia)” value in series [1] (heterozygous transgenic mice with c-terminal 34 aa ODC deletion targeted to the skin) is “reversible”. Also, in series [1] (mice with complete hair loss), the hair growth entry is on record as “partially restored hair growth”. In addition, in series [1] (setting [2]), the hair loss entry is “prevented hair loss” and the “reappearance of normal follicles” value was “activated reappearance of normal follicles”.
